Measurements published in patent publication US20110153302A1, “IDENTIFICATION OF DRUG EFFECTS ON SIGNALING PATHWAYS USING INTEGER LINEAR PROGRAMMING” (Massachusetts Institute of Technology, priority 2009, published 2011).
Entries after “also recorded” stand apart in the source; their conditions may differ.

Experiments:
HepG2 specific topology = experiment: Drug-induced topology alterations: ILP fit of the HepG2 specific topology to drug-induced phosphoprotein data; conditions: for Drug effect on downstream reactions of the TGFα branch (TGFα→GRB2→SOS→RAS→PI3K and RAS→RAF1→MEK1/2→ERK1/2) / Drug effect on the JNK→c-JUN branch: reactions removed from HepG2 topology by ILP, Gefitinib 3 uM; for Effect on c-Jun signaling: summary statement in the personalized medicine section
Source text: Here, we describe how the Boolean model described in [18] can be reformulated as an ILP. Note that such a transformation was recently performed for a different problem, namely the satisfiability, by. A pathway is defined as a set of reactions i=1, . . . , nr and species j=1, . . . , ns. Each reaction has three corresponding index sets, namely the index set of signaling molecules Ri, inhibitors Ii, and “products” Pi (“product” can also correspond to the phosphorylation level of the protein). These sets are all subsets of the species index set (Ri,Ii,Pi⊂{1, . . . , ns}). Typically, these subsets have very small cardinality (few species), e.g., |Ri|=0,1,2;|Ii|=0,1;|Pi|=1,2;|Ri|+|Ii|=1,2. A reaction takes place if and only if all reagents and no inhibitors are present. If a reaction takes place, all products are formed. Note that reactions without products as well as reactions with neither reagents nor inhibitors will be excluded here.
While typically the set of species is known, the set of reactions is not known. Rather, only a superset of potential reactions is postulated. The goal of the proposed formulation is to find an optimal (in some sense) set of reactions out of such a superset. To that extent binary variables yi are introduced, indicating if a reaction is possible or not (yi=0 connection not present, yi=1 connection present).
A set of experiments is performed, indexed by the superscript k=1, . . . , ne. In each experiment a subset of species is introduced to the system and another subset is excluded from the system. These are summarized by the index sets M^k,1 and M^k,0 respectively (two for each experiment). In the proposed formulation, constants are introduced for all such species, respectively xj^k=1 and xj^k=0. […] In the experiments a third subset of the species is measured (index set M^k,2) and for the remaining species no information is available. In the proposed formulation for each of the experiments and each such species a binary decision variable xj^kε{0,1} is introduced indicating if the species j is present (xj^k=1) or not (xj^k=0) in the experiment k according to the model predictions. […] This has some computational advantages.
In the present study, our ILP formulation was utilized in two different circumstances. For the creation of the cell-type specific pathway using combinations of inhibitors and stimuli our ILP formulation included 27887 constraints and 9732 variables. For each drug case, where the reduced and optimized pathway was utilized, we had 2477 constraints and 947 variables.
For the identification of the drug effects we make use of the second dataset in HepG2s where drugs are applied together with the same set of ligands. In this case, the ILP formulation is being used with the HepG2 specific topology (topology obtained from the previous step) and not the generic map.

HepG2 cells = experiment: Bead-based multiplexed (Luminex xMAP) measurement of 13 key phosphorylation events in cells treated with drugs and ligands; type: cell-based
Method: HepG2 cells were purchased from ATCC (Manassas, Va.), and seeded on 96-well plates coated with collagen type I-coated (BD Biosciences, Franklin Lakes, N.J.) at 30,000 cells/well in DME medium containing 10% Fetal Bovine Serum (FBS). The following morning, cells were starved for 4 hours and treated with inhibitors and/or drugs. Kinase inhibitors were used at concentrations sufficient to inhibit at least 95% the phosphorylation of the nominal target as determined by dose-response assays (presented in [17]). […] was chosen as the nominal target for Lapatinib, Erlotinib, and Gefitinib. The following saturated concentrations were used: p38 (PHA818637, 20 nM), MEK (PD325901, 100 nM) and cMET (JNJ38877605, 1 μM), PI3K (PI-103, 10 μM), Lapatinib at 3 uM [47], Erlotinib at 1 uM [47], Gefitinib at 3 uM [47], and Sorafenib at 3 uM (based on its inhibitory activity on ERK1/2 phosphorylation). Following incubation for 45 minutes with inhibitors and/or drugs cells were treated with saturated levels of 5 ligands: Tumor Necrosis Factor alpha (TNFα) at 100 ng/ml, Interleukin 1 alpha (IL1α) at 10 ng/ml, Insulin (INS) at 2 uM, Transforming Growth Factor (TGFα) at 100 ng/ml, and Hepatocytes Growth Factor (HGF) at 100 ng/ml. Each ligand was added alone or in pairs and cell lysates were collected at 0, 5, and 25 minutes following the cytokine stimulation. The 5 and 25 minutes lysates were mixed together in 1:1 ratio and the mixed lysate was measured as an indicator of the “average early signaling response”. The 5 and 25 minute time points were identified in a preliminary experiment as the optimal time points that maximally captured early phosphorylation activities.
(§1) From each lysate we measured 13 phosphorylation activities that we considered “key phosphorylation events” using a Luminex 200 system (Luminex Corp, Austin, Tex.). The 13-plex phospho-protein bead set from Bio-Rad was used to assay p70S6K (Thr421/Ser424), CREB (Ser133), p38 (Thr180/Tyr182), MEK1 (Ser217/Ser221), JNK (Thr183/Tyr185), HSP27 (Ser78), ERK1/2 (Thr202/Tyr204, Thr185/Tyr187), c-JUN (Ser63), IRS-1 (Ser636/Ser639), IκB-α (Ser32/Ser36), Histone H3 (Ser10), Akt (Ser473), and IR-β (Tyr1146). Data were normalized and plotted using with DataRail. For the construction of the dose response curve in FIG. 3i, HepG2 were starved for 4 hours and then incubated with Gefitinib (from 20 uM down to 27 nM-3 fold dilution) for 45 minutes followed by incubation with IL1α at 10 ng/ml final concentration for 30 minutes. Duplicate lysates were analyzed using the c-JUN (Ser63) beads in the Luminex 200 system.
High-throughput bead-based ELISA-type experiments using xMAP technology (Luminex, Tex., USA) are performed as briefly described in the Materials and Methods section and in [17]. We create two datasets: one for the construction of cell-type specific topology and another for the identification of the mechanisms of drug actions. […] For the purpose of this paper, we refer to “inhibitors” as the compounds for which we know the target and we use them in a concentration capable to block ˜95% of the downstream protein. Conversely, we refer to “drugs” as the compounds for which we assume no a-priori knowledge of their target. For each combination of cytokine and drug/inhibitor we collect cell lysates at 5 and 25 minutes. The two time points are pooled together in 1:1 ratio and the mixed lysates are used as an indicator of the “average early signaling response”. For each treatment we measure 13 protein phosphorylations that we consider “key protein activities” (raw data in FIG. 4). The key phosphorylation signals (listed in Materials and Methods) are chosen based on the availability of the reagents and quality controls performed at the early phases of the experimental setup. […]

JNK1/2 kinases = conditions: kinase profiles, ref [32]; cited from earlier work
c-JUN (Ser63) = experiment: Gefitinib dose response of c-JUN (Ser63) signal in HepG2 after IL1α (FIG. 3i); type: cell-based; conditions: Gefitinib 20 uM down to 27 nM, 45 min, IL1α 10 ng/ml, 30 min, linear fit
Source text: as §1

RAF/MEK/ERK pathway = conditions: human tumor cell lines, ref [33]; cited from earlier work
p38α = p38α (Homo sapiens, UniProt Q16539); conditions: refs [32],[45]; cited from earlier work
Chain of p38α (Q16539 whole entry): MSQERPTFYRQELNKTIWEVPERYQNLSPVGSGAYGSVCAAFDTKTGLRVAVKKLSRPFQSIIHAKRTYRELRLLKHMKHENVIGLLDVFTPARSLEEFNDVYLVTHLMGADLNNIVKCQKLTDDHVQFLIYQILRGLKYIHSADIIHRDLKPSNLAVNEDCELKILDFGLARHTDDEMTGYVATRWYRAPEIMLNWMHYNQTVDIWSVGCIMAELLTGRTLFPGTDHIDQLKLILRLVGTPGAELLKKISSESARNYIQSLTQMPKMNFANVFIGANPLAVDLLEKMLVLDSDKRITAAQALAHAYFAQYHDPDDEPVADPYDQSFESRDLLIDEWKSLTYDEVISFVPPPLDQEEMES

| Compound | Drug effect on the PI3K→...→AKT branch (HepG2 specific topology; HepG2 topology, ILP, Lapatinib 3 uM) | Drug effect on downstream reactions of the TGFα branch (TGFα→GRB2→SOS→RAS→PI3K and RAS→RAF1→MEK1/2→ERK1/2) (HepG2 specific topology; Lapatinib 3 uM, Erlotinib 1 uM) | Effect on c-Jun signaling (HepG2 specific topology) | TGFα induced MEK1/2, ERK1/2, and AKT phosphosignals (HepG2 cells; Lapatinib 3 uM, 45 min before TGFα 100 ng/ml, early response (5 and 25 min), FIG. 3e) | Activation of AKT by the HGF and INS path (HepG2 cells; Lapatinib 3 uM, FIG. 3e) | Drug effect on the TRAF6→MAP3k7 reaction (HepG2 specific topology; HepG2 topology, ILP, Erlotinib 1 uM) | Drug effect on the JNK→c-JUN branch (HepG2 specific topology; Erlotinib 1 uM, Sorafenib 3 uM) | Affinity for the directly upstream JNK1/2 kinases (JNK1/2 kinases) | IκB-α signals upon IL1α and TNFα stimuli (HepG2 cells; Erlotinib 1 uM, FIG. 4) | Activation of cJUN signal induced by the IL1α stimuli, dose response (c-JUN (Ser63)) | IL1α- and (IL1α+TGFα)-induced cJUN activity (HepG2 cells; Gefitinib 3 uM, IL1α 10 ng/ml, FIG. 3f) | Inhibition of activation of the RAF/MEK/ERK pathway (RAF/MEK/ERK pathway) | Drug effect on the p38 path (HepG2 specific topology; HepG2 topology, ILP, Sorafenib 3 uM) | Drug effect on the RAF→ERK1/2 reaction (HepG2 specific topology; HepG2 topology, network optimization, Sorafenib 3 uM) | HSP27 phosphorylation upon IL1α treatment (HepG2 cells; Sorafenib 3 uM, FIG. 3h) | MEK1 phosphorylation (HepG2 cells; Sorafenib 3 uM, FIG. 3h) | Target affinity to p38α (p38α) |
| --- | --- | --- | --- | --- | --- | --- | --- | --- | --- | --- | --- | --- | --- | --- | --- | --- | --- |
| CS(=O)(=O)CCNCc1ccc(-c2ccc3ncnc(Nc4ccc(OCc5cccc(F)c5)c(Cl)c4)c3c2)o1 [Lapatinib] | not removed | complete removal of the downstream reactions of the TGFα branch | do not affect c-Jun signaling | blocks | cannot be blocked | – | – | – | – | – | – | – | – | – | – | – | – |
| C#Cc1cccc(Nc2ncnc3cc(OCCOC)c(OCCOC)cc23)c1 [Erlotinib] | – | has the same effects as Gefitinib | do not affect c-Jun signaling | – | – | shows an effect in the TRAF6→MAP3k7 reaction | has the same effects as Gefitinib; also recorded: removal of the JNK→cJUN reaction | no medium or high affinity | inhibited in an IL1α-dependent but TNFα-independent manner | – | – | – | – | – | – | – | – |
| COc1cc2ncnc(Nc3ccc(F)c(Cl)c3)c2cc1OCCCN1CCOCC1 [Gefitinib] | – | alters the topology in a very similar pattern as Lapatinib | affects c-Jun signaling as well as EGFR signaling | – | – | – | removal of the JNK→c-JUN branch; also recorded: removal of the JNK→cJUN reaction | no medium or high affinity | – | can reduce the activation of cJUN signal; also recorded: does not follow a typical dose-response curve; also recorded: reduces cJUN activation | potent inhibition; also recorded: significant reduction of the cJUN activity; also recorded: previously unknown inhibition of cJUN in the IL1α pathway; also recorded: inhibits signaling downstream the Interleukin-1alpha (IL1α) pathway | – | – | – | – | – | – |
| CNC(=O)c1cc(Oc2ccc(NC(=O)Nc3ccc(Cl)c(C(F)(F)F)c3)cc2)ccn1 [Sorafenib] | – | – | – | – | – | – | blocks the JNK→c-JUN branch; also recorded: removal of the JNK→cJUN reaction | no medium or high affinity | – | – | – | does not inhibit activation of the RAF/MEK/ERK pathway in all human tumor cell lines | affects the p38 path; also recorded: inhibition of the pathway downstream of p38 | does not remove the RAF→ERK1/2 reaction | complete HSP27 inhibition | reduces but does not block | target affinity |
